This assay addresses T1, Adenosine receptor A3 (Homo sapiens, UniProt P0DMS8).
T1 sequence (P0DMS8 whole entry): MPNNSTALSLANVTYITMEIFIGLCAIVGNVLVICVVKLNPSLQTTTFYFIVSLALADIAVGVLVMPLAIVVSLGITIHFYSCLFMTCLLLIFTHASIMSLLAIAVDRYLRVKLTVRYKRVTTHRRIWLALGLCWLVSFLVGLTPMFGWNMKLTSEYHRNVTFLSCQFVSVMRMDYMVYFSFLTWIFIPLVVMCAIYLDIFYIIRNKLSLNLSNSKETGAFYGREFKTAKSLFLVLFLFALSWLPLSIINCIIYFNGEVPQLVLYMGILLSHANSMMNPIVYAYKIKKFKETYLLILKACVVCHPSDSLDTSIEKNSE

SMILES strings stand for the structures.

What is called Ki is a dissociation constant, usually derived from enzyme kinetics or from competition with a known ligand. In turn, `Nc1ccc(CNc2ncnc3c2ncn3[C@@H]2O[C@H](CO)[C@@H](O)[C@H]2O)cc1I` [IABA] gave a Ki of 10 nM.

The values above are taken from BindingDB's records for doi:10.1073/pnas.90.21.10365 (Merck Research Laboratories, 1993).
